Laboratory results published in US8466176B2 (priority 2008, dated 2013).

Assay: logP(HCOOH) reported with HPLC/MS
Details: HCOOH (formic acid), logP(HCOOH), HPLC/MS
`Cc1cccc(NC(=O)C(C)(C)C)[n+]1[O-]` [2,2-dimethyl-N-(6-methyl-1-oxidopyridin-2-yl)propanamide] gave a chromatographic logP of 1.5.
`Cc1cccc(NC(=O)C(C)(C)C)n1` [2,2-dimethyl-N-(6-methylpyridin-2-yl)propanamide] gave a chromatographic logP of 1.2.
Work on `Cc1cccc(C2OCCO2)[n+]1[O-]` [2-(1,3-dioxolan-2-yl)-6-methylpyridine 1-oxide] yielded a chromatographic logP of 0.45.
With `Cc1cccc(C2OCCO2)n1` [2-(1,3-dioxolan-2-yl)-6-methylpyridine] the chromatographic logP was 1.21.
Compound `CN(C)c1cccc(C(=NOCc2cccc(N3C(=O)c4ccccc4C3=O)n2)c2nnnn2C)c1` [2-(6-{[({[3-(dimethylamino)phenyl](1-methyl-1H-tetrazol-5-yl)methylene}amino)oxy]methyl}pyridin-2-yl)-1H-isoindole-1,3(2H)-dione] has a chromatographic logP of 3.17.
`O=C1c2ccccc2C(=O)N1Cc1cccc(CCl)n1` [2-{[6-(chloromethyl)pyridin-2-yl]methyl}-1H-isoindole-1,3(2H)-dione] showed a chromatographic logP of 2.51.
For `CON(C)C(=O)c1cccc(N(C)C)c1` [3-(dimethylamino)-N-methoxy-N-methylbenzamide], the chromatographic logP was 0.95.
For `CN(C)c1cccc(C(=NO)c2nnnn2C)c1` [3-[(hydroxyimino)(1-methyl-1H-tetrazol-5-yl)methyl]-N,N-dimethylaniline], the chromatographic logP was 1.17.
Compound `CSc1cccc(C(=NOCc2csc(N)n2)c2nnnn2C)c1` [4-{[({[3-(methylsulfanyl)phenyl](1-methyl-1H-tetrazol-5-yl)methylene}amino)oxy]methyl}-1,3-thiazol-2-amine] has a chromatographic logP of 1.76.
Work on `Cc1c(F)ccc(Br)[n+]1[O-]` [6-bromo-3-fluoro-2-methylpyridine 1-oxide] yielded a chromatographic logP of 0.56.
Work on `CN(C)c1cccc(C(=NOCc2cccc(N)n2)c2nnnn2C)c1` [6-{[({[3-(dimethylamino)phenyl](1-methyl-1H-tetrazol-5-yl)methylene}amino)oxy]methyl}pyridin-2-amine] yielded a chromatographic logP of 1.19.
For `CSc1cccc(C(=NOCc2cccc(N)n2)c2nnnn2C)c1` [6-{[({[3-(methylsulfanyl)phenyl](1-methyl-1H-tetrazol-5-yl)methylene}amino)oxy]methyl}pyridin-2-amine], the chromatographic logP was 1.42.
Work on `Cc1sc(Br)nc1CO` [(2-bromo-5-methyl-1,3-thiazol-4-yl)methanol] yielded a chromatographic logP of 1.1.
In the case of `OCc1nc(Br)ccc1F` [(6-bromo-3-fluoropyridin-2-yl)methanol], the chromatographic logP is reported as 0.92.
`CCCCCC(=O)NCc1cccc(CON=C(c2ccccc2)c2nnnn2C)n1` [Example 53, N-({6-[({[(1-methyl-1H-tetrazol-5-yl)(phenyl)methylene]amino}oxy)methyl]pyridin-2-yl}methyl)hexanamide] gave a chromatographic logP of 2.88.

Same assay, conditions: HPLC, logP(HCOOH), HPLC/MS
`Cc1sc(Br)nc1CBr` [2-bromo-4-(bromomethyl)-5-methyl-1,3-thiazole] showed a chromatographic logP of 2.64.
For `Cn1nnnc1C(=NOCc1cccc(CN)n1)c1ccccc1` [Example 52, 1-{6-[({[(1-methyl-1H-tetrazol-5-yl)(phenyl)methylene]amino}oxy)methyl]pyridin-2-yl}methanamine], the chromatographic logP was 1.23.

Same assay, conditions: formic acid (HCOOH), logP(HCOOH), HPLC/MS
With `Cn1nnnc1C(=NOCc1nc(Br)ccc1F)c1ccccc1` [Example 96, N-[(6-bromo-3-fluoro-pyridin-2-yl)methoxy]-1-(1-methyl-1H-tetrazol-5-yl)-1-phenylmethanimine] the chromatographic logP was 3.27.

Same assay, conditions: logP(HCOOH), HPLC/MS
`CSc1cccc(C(=NOCc2cccc(N3C(=O)c4ccccc4C3=O)n2)c2nnnn2C)c1` [2-(6-{[({[3-(methylsulfanyl)phenyl](1-methyl-1H-tetrazol-5-yl)methylene}amino)oxy]methyl}pyridin-2-yl)-1H-isoindole-1,3(2H)-dione] showed a chromatographic logP of 3.39.
Work on `Fc1ccc(Br)nc1CBr` [6-bromo-2-(bromomethyl)-3-fluoropyridine] yielded a chromatographic logP of 2.58.

Same assay, conditions: method [b]: LC-MS at pH 2.7, 0.1% formic acid in water and acetonitrile, linear gradient 10% to 95% acetonitrile
For `Cc1nnnn1C(=NOCc1cccc(N=CNC#N)n1)c1ccccc1` [Example 1], the log p was 2.22^[b].
In the case of `CCN(C)C=Nc1cccc(CON=C(c2ccccc2)n2nnnc2C)n1` [Example 3], the log p is reported as 1.43^[b].
In the case of `Cc1nnnn1C(=NOCc1cccc(NC(=S)NCc2ccc(Cl)c(Cl)c2)n1)c1ccccc1` [Example 4], the log p is reported as 4.09^[b].
For `Cc1nnnn1C(=NOCc1cccc(NC(=S)Nc2ccccc2)n1)c1ccccc1` [Example 5], the log p was 3.31^[b].
For `CCCCCCCCNC(=S)Nc1cccc(CON=C(c2ccccc2)n2nnnc2C)n1` [Example 6], the log p was 4.97^[b].
With `Cc1nnnn1C(=NOCc1cccc(NC(=S)NCCc2ccccc2)n1)c1ccccc1` [Example 7] the log p was 3.67^[b].
With `Cc1nnnn1C(=NOCc1cccc(NC(=S)NC2CCCCC2)n1)c1ccccc1` [Example 8] the log p was 3.81^[b].
With `Cc1nnnn1C(=NOCc1cccc(NC(=S)NC2CCCC2)n1)c1ccccc1` [Example 9] the log p was 3.53^[b].
With `Cc1nnnn1C(=NOCc1cccc(NC(=S)NCc2ccccc2)n1)c1ccccc1` [Example 10] the log p was 3.52^[b].
For `C=CCNC(=S)Nc1cccc(CON=C(c2ccccc2)n2nnnc2C)n1` [Example 11], the log p was 3.09^[b].
For `Cc1nnnn1C(=NOCc1cccc(NC(=S)NC(C)C)n1)c1ccccc1` [Example 12], the log p was 3.22^[b].
For `CCCCCNC(=S)Nc1cccc(CON=C(c2ccccc2)n2nnnc2C)n1` [Example 13], the log p was 3.82^[b].
For `COC(=O)c1cccc(CON=C(c2ccccc2)n2nnnc2C)n1` [Example 14], the log p was 2.47^[b].
In the case of `Cc1nnnn1C(=NOCc1cccc(C(=O)O)n1)c1ccccc1` [Example 15], the log p is reported as 1.97^[b].
With `CCCCCNC(=O)c1cccc(CON=C(c2ccccc2)n2nnnc2C)n1` [Example 16] the log p was 3.52^[b].
In the case of `Cc1cccc(CON=C(c2ccccc2)c2nnnn2C)n1` [Example 42], the log p is reported as 1.67^[b].
In the case of `Cn1nnnc1C(=NOCc1ncc(C(F)(F)F)cc1Cl)c1ccccc1` [Example 43], the log p is reported as 3.76^[b].
With `Cn1nnnc1C(=NOCc1cccc(CNC(=O)Cc2ccccc2)n1)c1ccccc1` [Example 54] the log p was 2.7^[b].
With `Cn1nnnc1C(=NOCc1cccc(CNC(=O)C(C)(C)C)n1)c1ccccc1` [Example 55] the log p was 2.58^[b].
With `CC(C)CC(=O)NCc1cccc(CON=C(c2ccccc2)c2nnnn2C)n1` [Example 56] the log p was 2.51^[b].
In the case of `CCCCC(=O)NCc1cccc(CON=C(c2ccccc2)c2nnnn2C)n1` [Example 57], the log p is reported as 2.56^[b].
In the case of `Cn1nnnc1C(=NOCc1cccc(CNC(=O)CCc2ccccc2)n1)c1ccccc1` [Example 58], the log p is reported as 2.82^[b].
With `CCCCCOC(=O)NCc1cccc(CON=C(c2ccccc2)c2nnnn2C)n1` [Example 60] the log p was 3.48^[b].
In the case of `CCCCOC(=O)NCc1cccc(CON=C(c2ccccc2)c2nnnn2C)n1` [Example 63], the log p is reported as 3.19^[b].
For `CC(C)C(C)NC(=O)c1cccc(CON=C(c2ccccc2)c2nnnn2C)n1` (stereo not shown) [Example 75], the log p was 3.44^[b].
In the case of `CC(=O)N(CCC1CCCCC1)c1cccc(CON=C(c2ccccc2)c2nnnn2C)n1` [Example 76], the log p is reported as 4.16^[b].
In the case of `CN(C)C(=O)c1cccc(CON=C(c2ccccc2)c2nnnn2C)n1` [Example 77], the log p is reported as 2.04^[b].
With `CC(C)c1nc(CON=C(c2ccccc2)c2nnnn2C)cs1` [Example 78] the log p was 3.39^[b].
In the case of `Cn1nnnc1C(=NOCc1cccc(F)n1)c1ccccc1` [Example 79], the log p is reported as 2.77^[b].
For `COC[C@H](C)NC(=O)c1cccc(CON=C(c2ccccc2)c2nnnn2C)n1` [Example 83], the log p was 2.7^[b].
With `CC(C)NC(=O)c1cccc(CON=C(c2ccccc2)c2nnnn2C)n1` [Example 84] the log p was 2.84^[b].
With `CCCCCN(C)C(=O)c1cccc(CON=C(c2ccccc2)c2nnnn2C)n1` [Example 85] the log p was 3.29^[b].
In the case of `Cn1nnnc1C(=NOCc1cccc(C(=O)NC(C)(C)C)n1)c1ccccc1` [Example 86], the log p is reported as 3.37^[b].
For `Cn1nnnc1C(=NOCc1nc(C#CCC2CCCCC2)ccc1F)c1ccccc1` [Example 97], the log p was 5.28^[b].
With `Cn1nnnc1C(=NOCc1nc(C#CCC2CCCC2)ccc1F)c1ccccc1` [Example 98] the log p was 4.92^[b].
With `Cn1nnnc1C(=NOCc1nc(C#CCc2ccccc2)ccc1F)c1ccccc1` [Example 100] the log p was 4.24^[b].
With `CC(C)CCC#Cc1ccc(F)c(CON=C(c2ccccc2)c2nnnn2C)n1` [Example 101] the log p was 3.13^[b].
With `CCSCC#Cc1ccc(F)c(CON=C(c2ccccc2)c2nnnn2C)n1` [Example 102] the log p was 3.85^[b].
With `Cn1nnnc1C(=NOCc1nc(C#CCCCC#N)ccc1F)c1ccccc1` [Example 103] the log p was 3.11^[b].
With `Cn1nnnc1C(=NOCc1nc(C#CCCCc2ccccc2)ccc1F)c1ccccc1` [Example 104] the log p was 4.84^[b].
In the case of `Cn1nnnc1C(=NOCc1nc(C#CCCCCl)ccc1F)c1ccccc1` [Example 105], the log p is reported as 3.87^[b].
For `Cn1nnnc1C(=NOCc1nc(C#CCOc2ccccc2)ccc1F)c1ccccc1` [Example 106], the log p was 4.04^[b].
For `Cn1nnnc1C(=NOCc1nc(C#CCCC2CCCCC2)ccc1F)c1ccccc1` [Example 107], the log p was 5.68^[b].
With `Cn1nnnc1C(=NOCc1nc(C#CC2CCCCC2)ccc1F)c1ccccc1` [Example 108] the log p was 4.92^[b].
For `Cn1nnnc1C(=NOCc1cccc(C#CC2CC2)n1)c1ccccc1` [Example 109], the log p was 3.46^[b].
For `Cn1nnnc1C(=NOCc1cccc(C#CCn2ccc(C(F)(F)F)n2)n1)c1ccccc1` [Example 110], the log p was 3.62^[b].
With `Cn1nnnc1C(=NOCc1cccc(C#CCC2CCC2)n1)c1ccccc1` [Example 111] the log p was 4.39^[b].
For `Cn1nnnc1C(=NOCc1cccc(C#CCc2cccc(F)c2)n1)c1ccccc1` [Example 112], the log p was 4.16^[b].
With `CCCC#Cc1nc(CON=C(c2ccccc2)c2nnnn2C)c(Cl)s1` [Example 115] the log p was 4.75^[b].
With `Cn1nnnc1C(=NOCc1nc(C#CC2CCCC2)sc1Cl)c1ccccc1` [Example 116] the log p was 5.31^[b].

Same assay, conditions: reversed phase HPLC column, pH 2.7, log p, method [b]: LC-MS at pH 2.7, 0.1% formic acid in water and acetonitrile, linear gradient 10% to 95% acetonitrile
Work on `Cn1nnnc1C(=NOCc1cccc(CN)n1)c1ccccc1` [Example 52, 1-{6-[({[(1-methyl-1H-tetrazol-5-yl)(phenyl)methylene]amino}oxy)methyl]pyridin-2-yl}methanamine] yielded a chromatographic logP of 1.23.
With `CCCCCC(=O)NCc1cccc(CON=C(c2ccccc2)c2nnnn2C)n1` [Example 53, N-({6-[({[(1-methyl-1H-tetrazol-5-yl)(phenyl)methylene]amino}oxy)methyl]pyridin-2-yl}methyl)hexanamide] the chromatographic logP was 2.88.
`Cn1nnnc1C(=NOCc1nc(Br)ccc1F)c1ccccc1` [Example 96, N-[(6-bromo-3-fluoro-pyridin-2-yl)methoxy]-1-(1-methyl-1H-tetrazol-5-yl)-1-phenylmethanimine] gave a chromatographic logP of 3.27.
